One test addresses c-MET (Homo sapiens, UniProt P08581). Kind of test: MET luminescence-based enzyme assay (Kinase-Glo). The class given is biochemical. The method, then:
The subscript designates positive or negative controls. The Z′ score for a robust screening assay should be ≧0.50. The typical threshold=μ+−3*σ+. Any value that falls below the threshold was designated a “hit”.
MET Luminescence-Based Enzyme Assay
MET kinase (see below), Kinase-Glo™ (Promega Cat#V6712).
Negative controls contained 10 μM staurosporine.

Another test deals with GTL16 cells. Kind of test: 96-well XTT cell survival assay (GTL16 cells). The class given is cell-based. The method, then: GTL16 cells were maintained in DMEM Medium supplemented with 10% fetal bovine serum (FBS) 2 mM L-Glutamine and 100 units penicillin/100 μg streptomycin, at 37° C. in 5% CO2.
Compounds were tested in the following assays in duplicate.
96-well XTT assay (GTL16 cells): One day prior to assay the growth media was aspirated off and assay media was added to cells. On the day of the assay, the cells were grown in assay media containing various concentrations of compounds (duplicates) on a 96-well flat bottom plate for 72 hours at 37° C. in 5% CO2. The starting cell number was 5000 cells per well and volume was 120 μl. At the end of the 72-hour incubation, 40 μl of XTT labeling mixture (50:1 solution of sodium 3′-[1-(phenylaminocarbonyl)-3,4-tetrazolium]-bis (4-methoxy-6-nitro) benzene sulfonic acid hydrate and Electron-coupling reagent: PMS (N-methyl dibenzopyrazine methyl sulfate) were added to each well of the plate. After an additional 5 hours of incubation at 37° C., the absorbance reading at 450 nm with a background correction of 650 nm was measured with a spectrophotometer.

pIC50: −log10 of the molar value. Where a name gives a salt, the structure may show the parent alone.

Sequence of c-MET (P08581 1078-1345 limits assumed): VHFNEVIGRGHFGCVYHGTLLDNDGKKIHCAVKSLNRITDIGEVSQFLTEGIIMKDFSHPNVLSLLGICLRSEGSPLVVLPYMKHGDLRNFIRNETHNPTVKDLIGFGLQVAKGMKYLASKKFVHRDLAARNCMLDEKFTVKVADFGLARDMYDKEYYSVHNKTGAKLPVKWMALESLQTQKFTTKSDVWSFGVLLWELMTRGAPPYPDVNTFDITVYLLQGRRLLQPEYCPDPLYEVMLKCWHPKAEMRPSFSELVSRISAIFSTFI

In the case of `CNC(=O)c1ccc(-c2ccc3nnc(Sc4ccc5ncccc5c4)n3n2)cc1F` [Compound 11, 2-Fluoro-N-methyl-4-[3-(quinolin-6-ylsulfanyl)-[1,2,4]triazolo[4,3-b]pyridazin-6-yl]-benzamide], the pIC50 against c-MET was > 7.00; with GTL16 cells (Homo sapiens, GTL 16, 72 hours), 6.00 to 7.00.

Take `Cn1cc(-c2ccc3nnc(Sc4ccc5ncc(NC(=O)OC(C)(C)C)cc5c4)n3n2)cn1` [Compound 35, {6-[6-(1-Methyl-1H-pyrazol-4-yl)-[1,2,4]triazolo[4,3-b]pyridazin-3-ylsulfanyl]-quinolin-3-yl}-carbamic acid tert-butyl ester]: the pIC50 against c-MET was > 7.00; in the test on GTL16 cells (Homo sapiens, GTL 16, 72 hours) it was ≥ 7.00.

Take `CN(C)CCn1cnc2ccc(Sc3nnc4ccc(-c5cnn(C)c5)nn34)cc21` [Compound 32, Dimethyl-(2-{6-[6-(1-methyl-1H-pyrazol-4-yl)-[1,2,4]triazolo[4,3-b]pyridazin-3-ylsulfanyl]-benzoimidazol-1-yl}-ethyl)-amine, formic acid salt]: the pIC50 was 6.00 to 7.00 on c-MET and 5.00 to 6.00 in the test on GTL16 cells (Homo sapiens, GTL 16, 72 hours).

As to `CCc1ccnc2ccc(Sc3nnc4ccc(-c5cnn(C)c5)nn34)cc12` [Compound 60, 4-Ethyl-6-[6-(1-methyl-1H-pyrazol-4-yl)-[1,2,4]triazolo[4,3-b]pyridazin-3-ylsulfanyl]-quinoline], the negative logarithm of the IC50 (pIC50) on c-MET was > 7.00; in the test on GTL16 cells (Homo sapiens, GTL 16, 72 hours), ≥ 7.00.

On to `CCN1CC(n2cc(-c3cnc4ccc(Sc5nnc6ccc(C)nn56)cc4c3)cn2)C1` [Compound 61, 3-[1-(1-Ethyl-azetidin-3-yl)-1H-pyrazol-4-yl]-6-(6-methyl-[1,2,4]triazolo[4,3-b]pyridazin-3-ylsulfanyl)-quinoline], for which the pIC50 on c-MET is > 7.00; with GTL16 cells (Homo sapiens, GTL 16, 72 hours), ≥ 7.00.

As to “(2:1) mixture of 3-(7-Methyl-benzothiazol-6-ylsulfanyl)-6-(1-methyl-1H-pyrazol-4-yl)-[1,2,4]triazolo[4,3-b]pyridazine and 3-(5-Methyl-benzothiazol-6-ylsulfanyl)-6-(1-methyl-1H-pyrazol-4-yl)-[1,2,4]triazolo[4,3-b]pyridazine [Compound 8]”, the values for the pIC50 at c-MET and in the test with GTL16 cells (72 hours) were > 7.00 and ≥ 7.00, respectively.

With `Cc1ccc2nnc(Sc3ccc4ncc(-c5cnn(C6CN(C)C6)c5)cc4c3)n2n1` [Compound 63, 3-[1-(1-Methyl-azetidin-3-yl)-1H-pyrazol-4-yl]-6-(6-methyl-[1,2,4]triazolo[4,3-b]pyridazin-3-ylsulfanyl)-quinoline], the negative-log IC50 (pIC50) on c-MET was > 7.00; in the test on GTL16 cells (Homo sapiens, GTL 16, 72 hours) it was ≥ 7.00.

In the case of `Cc1ccc2nnc(Sc3ccc4ncc(-c5cnn(C6CN(C(=O)OC(C)(C)C)C6)c5)cc4c3)n2n1` [Compound 64, 3-{4-[6-(6-Methyl-[1,2,4]triazolo[4,3-b]pyridazin-3-ylsulfanyl)-quinolin-3-yl]-pyrazol-1-yl}-azetidine-1-carboxylic acid tert-butyl ester], the pIC50 is > 7.00 against c-MET and ≥ 7.00 with GTL16 cells (Homo sapiens, GTL 16, 72 hours).

Consider `Cn1cc(-c2ccc3nnc(Sc4ccc5ncsc5c4)n3n2)cn1` [Compound 14, 3-(Benzothiazol-6-ylsulfanyl)-6-(1-methyl-1H-pyrazol-4-yl)-[1,2,4]triazolo[4,3-b]pyridazine], for which the pIC50 is > 7.00 on c-MET and ≥ 7.00 with GTL16 cells (Homo sapiens, GTL 16, 72 hours).

On to `Cn1cc(-c2cnc3ccc(Sc4nnc5ccc(-c6cnn(C)c6)nn45)cc3c2)cn1` [Compound 40, 3-(1-Methyl-1H-pyrazol-4-yl)-6-[6-(1-methyl-1H-pyrazol-4-yl)-[1,2,4]triazolo[4,3-b]pyridazin-3-ylsulfanyl]-quinoline], for which the pIC50 was > 7.00 against c-MET and ≥ 7.00 in the test on GTL16 cells (Homo sapiens, GTL 16, 72 hours).

In the case of `COCCn1cnc2ccc(Sc3nnc4ccc(-c5cnn(C)c5)nn34)cc21` [Compound 31, 3-[3-(2-Methoxy-ethyl)-3H-benzoimidazol-5-ylsulfanyl]-6-(1-methyl-1H-pyrazol-4-yl)-[1,2,4]triazolo[4,3-b]pyridazine], the pIC50 against c-MET was > 7.00; in the test on GTL16 cells (Homo sapiens, GTL 16, 72 hours), 6.00 to 7.00.

As to `CCc1ccc2nnc(Sc3ccc4ncc(-c5cnn(C6CN(CC)C6)c5)cc4c3)n2n1` [Compound 70, 3-[1-(1-Ethyl-azetidin-3-yl)-1H-pyrazol-4-yl]-6-(6-ethyl-[1,2,4]triazolo[4,3-b]pyridazin-3-ylsulfanyl)-quinoline], the pIC50 against c-MET is > 7.00; in the test on GTL16 cells (Homo sapiens, GTL 16, 72 hours), ≥ 7.00.

In the case of `CCc1ccc2nnc(Sc3ccc4ncc(-c5cnn(C)c5)cc4c3)n2n1` [Compound 58, 6-(6-Ethyl-[1,2,4]triazolo[4,3-b]pyridazin-3-ylsulfanyl)-3-(1-methyl-1H-pyrazol-4-yl)-quinoline], the negative-log IC50 (pIC50) on c-MET is > 7.00; in the test with GTL16 cells (Homo sapiens, GTL 16, 72 hours) it was ≥ 7.00.

As to `c1cnc2ccc(Sc3nnc4ccc(-c5cn[nH]c5)nn34)cc2c1` [Compound 39, 6-[6-(1H-Pyrazol-4-yl)-[1,2,4]triazolo[4,3-b]pyridazin-3-ylsulfanyl]-quinoline], the pIC50 against c-MET was > 7.00; with GTL16 cells (Homo sapiens, GTL 16, 72 hours), 6.00 to 7.00.

As to `Cn1cc(-c2ccc3nnc(Sc4ccc5nccc(OCCO)c5c4)n3n2)cn1` [Compound 50, 2-{6-[6-(1-Methyl-1H-pyrazol-4-yl)-[1,2,4]triazolo[4,3-b]pyridazin-3-ylsulfanyl]-quinolin-4-yloxy}-ethanol], the negative logarithm of the IC50 (pIC50) at c-MET was > 7.00; in the test with GTL16 cells (Homo sapiens, GTL 16, 72 hours) it was ≥ 7.00.

As for `Cc1ccc2nnc(Sc3cc4cc(-c5cnn(C)c5)cnc4cc3F)n2n1` [Compound 52, 7-Fluoro-3-(1-methyl-1H-pyrazol-4-yl)-6-(6-methyl-[1,2,4]triazolo[4,3-b]pyridazin-3-ylsulfanyl)-quinoline], the pIC50 was > 7.00 at c-MET and ≥ 7.00 in the test on GTL16 cells (Homo sapiens, GTL 16, 72 hours).

Regarding `Cc1ccc2nnc(Sc3ccc4ncc(-c5cnn(C6CN(C(C)C)C6)c5)cc4c3)n2n1` [Compound 69, 3-[1-(1-Isopropyl-azetidin-3-yl)-1H-pyrazol-4-yl]-6-(6-methyl-[1,2,4]triazolo[4,3-b]pyridazin-3-ylsulfanyl)-quinoline], the pIC50 against c-MET is > 7.00; with GTL16 cells (Homo sapiens, GTL 16, 72 hours), ≥ 7.00.

Regarding `Cn1cc(-c2ccc3nnc(Sc4ccc5ncn(C)c5c4)n3n2)cn1` [Compound 25, 3-(3-Methyl-3H-benzoimidazol-5-ylsulfanyl)-6-(1-methyl-1H-pyrazol-4-yl)-[1,2,4]triazolo[4,3-b]pyridazine], the pIC50 against c-MET was > 7.00; in the test on GTL16 cells (Homo sapiens, GTL 16, 72 hours), ≥ 7.00.

The values above are taken from patent US8507489B2, “Bicyclic triazoles as protein kinase modulators” (SGX Pharmaceuticals, Inc., priority 2006, dated 2013).
